According to PMC9737981, “Molecular Hybridization Strategy on the Design, Synthesis, and Structural Characterization of Ferrocene-N-acyl Hydrazones as Immunomodulatory Agents” (Molecules, 2022):

Tests used:
nitrite production = assay: Nitrite production by activated peritoneal macrophages (Griess); assay type: cell-based, BALB/c mice; details: LPS + IFN-γ
Procedure: (§1) Immortalized J774 macrophages (2 × 10^5 cells/well) or peritoneal macrophages (2 × 10^5 cells/well) were incubated in 96-well plates in a DMEM medium supplemented with 10% FBS and 50 µg/mL of gentamicin, in triplicate, stimulated or not with LPS (500 ng/mL) and IFN-γ (5 ng/mL), and treated or not with different concentrations of the evaluated ferrocenyl-N-acyl hydrazones. The cells were incubated for 4 or 24 h at 37 °C and 5% CO2. Cell-free supernatants were collected after 4 h (for TNFα measurement) and 24 h (for IL-1β, TNFα, and nitrite quantifications), and kept at −80 °C until use.
(§2) The dosage of cytokines IFN-γ, IL-1β, IL-2, IL-4, and TNFα was performed from the supernatant of peritoneal macrophages or splenocytes were determined by enzyme-linked immunosorbent assay (ELISA), using DuoSet kits from R&D Systems, according to the manufacturer’s instructions. Nitric oxide production was estimated in macrophage culture supernatants harvested at 24 h using the Griess method for nitrite quantification.

TNFα = TNFα production by peritoneal macrophages stimulated with LPS + IFN-γ (ELISA); assay type: cell-based, BALB/c mice
Procedure: as §1, §2

nitric oxide production = assay: Inhibition of nitric oxide (nitrite) production in J774 macrophages stimulated with LPS + IFN-γ (Griess); assay type: cell-based; details: for Inhibition of NO (%) Production at 40 μM: 24 h incubation with compounds and LPS plus IFN-γ
Procedure: as §1, §2

IL-2 = IL-2 production by splenocytes stimulated with concanavalin A (ELISA); assay type: cell-based, BALB/c mice; details: Con A 5 µg/mL, 24 h
Procedure: (§3) BALB/c splenocyte suspensions were prepared in a DMEM medium supplemented with FBS and gentamicin. Splenocytes (5 × 10^6 cells/well) were plated in 24-well plates, in triplicate, and stimulated or not with concanavalin A (Con A; 5 µg/mL, Sigma-Aldrich). To evaluate lymphocyte function, splenocytes were activated in the absence or presence of various concentrations of SintMed149 and SintMed150 (10, 20, and 40 µM). After 24 h of treatment, cell-free supernatants were collected and kept at −80 °C until use.
as §2

[1] = system: carrageenan-induced acute peritonitis; assay: Carrageenan-induced acute peritonitis (neutrophil migration); assay type: in vivo, BALB/c mice; details: 25 mg/kg; compared to vehicle
Procedure: Next, animals were challenged with a 250 μL injection of carrageenan (1 mg/mL; intraperitoneal route). After 4 h, animals were euthanized and peritoneal exudates were harvested by peritoneal lavage using 2.5 mL of saline solution. Cells were centrifuged at 400× g for 10 min, at 4 °C. The pellet was resuspended in saline (1 mL). Total leukocytes in the peritoneal fluid were determined in a Neubauer chamber after dilution in Trypan blue stain. Differential counting of neutrophils was carried out in rapid panotype-stained cytospin preparations. A differential count of 300 cells was made in a blinded fashion and according to standard morphologic criteria.

IL-4 = IL-4 production by splenocytes stimulated with concanavalin A (ELISA); assay type: cell-based, BALB/c mice; details: Con A 5 µg/mL, 24 h
Procedure: as §3, §2

IFN-γ = IFN-γ production by splenocytes stimulated with concanavalin A (ELISA); assay type: cell-based, BALB/c mice; details: 10 µM; Con A 5 µg/mL; 24 h
Procedure: as §3, §2

[2] = system: LPS-induced endotoxic shock; assay: LPS-induced endotoxin shock (survival); assay type: in vivo, BALB/c mice; details: 25 mg/kg, lethal LPS, monitored 4 days
Procedure: Groups of five male BALB/c mice (4 weeks of age) were used for the LPS lethality assays. Mice were treated with different doses of SintMed150 (50 or 100 mg/kg), dexamethasone (25 mg/kg), or vehicle (solution containing 30% sorbitol, 10% Tween 80, and 60% saline), by intraperitoneal (i.p.) route. Ninety minutes later, animals were challenged with 600 µg of LPS (from serotype 0111:B4 Escherichia coli, Sigma-Aldrich) in saline, by i.p. route. The survival rate was then monitored daily during 4 days.

IL-1β = IL-1β production by peritoneal macrophages stimulated with LPS + IFN-γ (ELISA); assay type: cell-based, BALB/c mice
Procedure: as §1, §2

peritoneal macrophages = assay: Cytotoxicity to peritoneal macrophages activated with LPS + IFNγ (Alamar Blue); assay type: cell-based, BALB/c mice
Procedure: The second set of experiments was performed using peritoneal macrophages activated with LPS (500 ng/mL, Sigma-Aldrich) and IFNγ (5 ng/mL; Sigma-Aldrich).
Peritoneal exudate macrophages were obtained by washing, with a cold DMEM medium, the peritoneal cavity of BALB/c mice 4–5 days after injection of 3% thioglycolate (Sigma-Aldrich) in saline (1.5 mL per mouse). Cells were seeded into 96-well plates at a cell density of 1 × 10^5 cells/well in a DMEM medium supplemented with 10% FBS and 50 µg/mL of gentamicin and incubated for 24 h at 37 °C and 5% CO2. […] At the end of treatment, 20 µL/well of Alamar Blue (Invitrogen) were added to the plates for 10 h. Colorimetric readings were performed at 570 and 600 nm using a SpectraMax 190 Microplate Reader (Molecular Devices, Sunnyvale, CA, USA).

J774 macrophages = assay: Cytotoxicity to J774 macrophages (Alamar Blue); assay type: cell-based; details: 72 h, read-out: CC50 (µM) JJ74
Procedure: J774 macrophages were seeded into 96-well plates at a cell density of 1 × 10^4 cells/well in a DMEM medium supplemented with 10% fetal bovine serum (FBS; GIBCO) and 50 µg/mL of gentamicin (Life Technologies, Carlsbad, CA, USA) and incubated for 24 h at 37 °C and 5% CO2. After that time, each compound was added in six concentrations (50–1.56 µM), in triplicate, and incubated for 72 h. At the end of treatment, 20 µL/well of Alamar Blue (Invitrogen) was added to the plates for 4 h. […]
As a positive control, gentian violet was used at concentrations ranging from 0.04 to 10 µM. CC50 values were calculated using data from three independent experiments.
To determine the cytotoxicity concentration of 50% of J774 macrophages (CC50), we used non-linear regression. One-way analysis of variance and Newman–Keuls multiple comparison tests were employed by using Graph Pad Prism version 8.0.1 (Graph Pad Software; San Diego, CA, USA). Differences were considered significant when the values of p were < 0.05. The data are representative of at least two or three experiments.

Compound	CC50 (J774 macrophages)	Inhibition of NO (%) Production at 40 μM (nitric oxide production)	other results
C[C@@H]1C[C@H]2[C@@H]3CCC4=CC(=O)C=C[C@]4(C)[C@@]3(F)[C@@H](O)C[C@]2(C)[C@@]1(O)C(=O)CO [Dexamethasone, reference compound]	–	–	Nitrite production (nitrite production; 10 µM): promoted the reduction; TNF production (TNFα; 10 µM): promoted the reduction; inhibition at 40 µM (nitric oxide production; Mus musculus, J774, 24 h incubation with compounds and LPS plus IFN-γ, read-out: Inhibition of NO (%) Production at 40 μM): 64.9%; IL-2 levels (IL-2; 10 µM): significantly reduced; Reduction in neutrophil migration [1]: 55%; IL-4 levels (IL-4; 10 µM): significantly reduced; IFN-γ levels (IFN-γ): significantly reduced; Survival rate [2]: 83.3%; IL-1β production (IL-1β; 10 µM): promoted the reduction; Cytotoxicity (cell viability) in peritoneal macrophages (peritoneal macrophages; 40 µM): not cytotoxic
Cc1ccccc1C(=O)N/N=C/[c-]1cccc1.[Fe+2].c1cc[cH-]c1 [SintMed148, (E)-N′-(Ferrocenylmethylidene)-2-methylbenzohydrazide]	> 50 µM	56.6 (±2.1) %	–
O=C(N/N=C/[c-]1cccc1)c1ccccc1Br.[Fe+2].c1cc[cH-]c1 [SintMed149, (E)-N′-(Ferrocenylmethylidene)-2-bromobenzohydrazide]	> 50 µM	71.7 (±3.6) %	Nitrite production (nitrite production; 10, 20 and 40 µM, p < 0.05): inhibited, in a concentration-dependent manner; TNF production (TNFα; 10, 20 and 40 µM, 4 h, p < 0.05): inhibitory effect; IL-2 levels (IL-2; 10, 20, 40 µM): significant and concentration-dependent reduction; IL-4 levels (IL-4; 10, 20, 40 µM): did not significantly reduce; IL-1β production (IL-1β; 10, 20 and 40 µM, 24 h, p < 0.05): inhibitory effect; Cytotoxicity (cell viability) in peritoneal macrophages (peritoneal macrophages; all concentrations tested (10, 20, 40 µM)): not cytotoxic
O=C(N/N=C/[c-]1cccc1)c1cccc(Cl)c1.[Fe+2].c1cc[cH-]c1 [SintMed154, (E)-N′-(Ferrocenylmethylidene)-3-chlorobenzohydrazide]	> 50 µM	45.2 (±2.1) %	–
O=C(N/N=C/[c-]1cccc1)c1ccco1.[Fe+2].c1cc[cH-]c1 [SintMed143, (E)-N′-(Ferrocenylmethylidene)furan-2-ylcarbohydrazide]	> 50 µM	49.2 (±1.9) %	–
COc1cc(C(=O)N/N=C/[c-]2cccc2)cc(OC)c1OC.[Fe+2].c1cc[cH-]c1 [SintMed152, (E)-N′-(Ferrocenylmethylidene)-3,4,5-trimethoxybenzohydrazide]	> 50 µM	55.5 (±1.7) %	–
O=C(N/N=C/[c-]1cccc1)c1ccc(C(F)(F)F)cc1.[Fe+2].c1cc[cH-]c1 [SintMed147, (E)-N′-(Ferrocenylmethylidene)-4-(trifluoromethyl)benzohydrazide]	> 50 µM	59.9 (±0.3) %	–
CC(C)(C)c1cc(C(=O)N/N=C/[c-]2cccc2)cc(C(C)(C)C)c1O.[Fe+2].c1cc[cH-]c1 [SintMed146, (E)-N′-(Ferrocenylmethylidene)-3,5-tert-butyl-4-hydroxybenzohydrazide]	> 50 µM	14.4 (±2.2) %	–
N#Cc1ccc(C(=O)N/N=C/[c-]2cccc2)cc1.[Fe+2].c1cc[cH-]c1 [SintMed144, (E)-N′-(Ferrocenylmethylidene)-4-cyanobenzohydrazide]	> 50 µM	55.2 (±0.6) %	–
COc1ccc(C(=O)N/N=C/[c-]2cccc2)c(OC)c1.[Fe+2].c1cc[cH-]c1 [SintMed156, (E)-N′-(Ferrocenylmethylidene)-2,4-dimethoxybenzohydrazide]	> 50 µM	46.7 (±3.0) %	–
O=C(N/N=C/[c-]1cccc1)c1ccccc1.[Fe+2].c1cc[cH-]c1 [SintMed141, (E)-N′-(Ferrocenylmethylidene)benzohydrazide]	> 50 µM	19.7 (±3.0) %	–
O=C(N/N=C/[c-]1cccc1)c1cc(O)c(O)c(O)c1.[Fe+2].c1cc[cH-]c1 [SintMed151, (E)-N′-(Ferrocenylmethylidene)-3,4,5-trihydroxybenzohydrazide]	> 50 µM	25.2 (±2.1) %	–
O=C(N/N=C/[c-]1cccc1)c1cccc2ccccc12.[Fe+2].c1cc[cH-]c1 [SintMed155, (E)-N′-(Ferrocenylmethylidene)-1-naphtylcarbohydrazide]	> 50 µM	35.6 (±0.7) %	–
O=C(N/N=C/[c-]1cccc1)c1ccccc1Cl.[Fe+2].c1cc[cH-]c1 [SintMed142, (E)-N′-(Ferrocenylmethylidene)-2-chlorobenzohydrazide]	> 50 µM	49.3 (±0.8) %	–
O=C(N/N=C/[c-]1cccc1)c1ccc2ccccc2n1.[Fe+2].c1cc[cH-]c1 [SintMed145, (E)-N′-(Ferrocenylmethylidene)quinolin-2-ylcarbohydrazide]	> 50 µM	49.6 (±2.6) %	–
COc1cc(C(=O)N/N=C/[c-]2cccc2)cc(OC)c1OC.[Fe+2].c1cc[cH-]c1 [SintMed153, (E)-N′-(Ferrocenylmethylidene)-3,4,5-trimethoxybenzohydrazide]	> 50 µM	43.7 (±3.3) %	–
